Tests used:
MMP-9 = MMP-9 (Homo sapiens, UniProt P14780); test: K(obs) of individual phage substrates (set of 1369); assay type: biochemical; conditions: MMP9, individual phage substrates, set of 1369 peptides
MMP-2 = target: T1, MMP-2 (Homo sapiens, UniProt P08253); test: as above; assay type: biochemical; conditions: MMP2
T1 sequence (P08253 110-660): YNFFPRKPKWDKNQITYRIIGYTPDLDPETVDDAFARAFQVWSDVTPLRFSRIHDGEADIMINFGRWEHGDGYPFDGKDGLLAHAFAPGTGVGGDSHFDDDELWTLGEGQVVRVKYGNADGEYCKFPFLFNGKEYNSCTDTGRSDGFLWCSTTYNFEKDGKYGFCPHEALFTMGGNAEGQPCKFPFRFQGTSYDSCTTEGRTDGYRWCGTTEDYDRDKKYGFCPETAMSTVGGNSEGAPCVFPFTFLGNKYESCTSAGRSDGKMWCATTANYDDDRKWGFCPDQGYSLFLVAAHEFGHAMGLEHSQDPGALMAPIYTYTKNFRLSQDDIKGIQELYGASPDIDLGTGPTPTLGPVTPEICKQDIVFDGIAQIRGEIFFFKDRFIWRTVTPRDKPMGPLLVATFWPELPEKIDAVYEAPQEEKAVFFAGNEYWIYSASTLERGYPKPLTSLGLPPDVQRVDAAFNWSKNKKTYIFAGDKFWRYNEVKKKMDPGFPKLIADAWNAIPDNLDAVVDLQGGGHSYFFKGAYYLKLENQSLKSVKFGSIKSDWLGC

[1] = dash in sequence marks cleavage position
[2] = individual phage substrate from the set of 1369 peptides, cleavage position marked by the dash in the sequence
[3] = '-' marks the cleavage position (P1-P1')
[4] = individual phage substrates, set of 1369 peptides, cleavage position marked by '-' in the sequence

MMP-9, sequence (P14780 94-707): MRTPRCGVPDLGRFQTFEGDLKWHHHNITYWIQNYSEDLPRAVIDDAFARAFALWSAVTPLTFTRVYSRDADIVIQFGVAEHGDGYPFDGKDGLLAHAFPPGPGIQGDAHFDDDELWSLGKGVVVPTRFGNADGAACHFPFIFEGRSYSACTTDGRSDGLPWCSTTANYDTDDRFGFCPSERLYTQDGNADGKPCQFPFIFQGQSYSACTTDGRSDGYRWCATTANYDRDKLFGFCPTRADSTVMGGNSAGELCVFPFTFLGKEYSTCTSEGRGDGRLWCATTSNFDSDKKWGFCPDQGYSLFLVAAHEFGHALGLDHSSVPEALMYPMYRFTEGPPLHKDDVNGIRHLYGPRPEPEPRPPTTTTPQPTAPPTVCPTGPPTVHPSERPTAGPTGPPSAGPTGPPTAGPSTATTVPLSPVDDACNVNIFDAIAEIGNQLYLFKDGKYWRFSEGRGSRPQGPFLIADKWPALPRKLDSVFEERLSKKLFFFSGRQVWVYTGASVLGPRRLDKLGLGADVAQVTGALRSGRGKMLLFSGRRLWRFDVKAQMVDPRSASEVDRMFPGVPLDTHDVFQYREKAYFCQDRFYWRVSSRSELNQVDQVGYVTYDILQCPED

| Substance | Kobs (MMP-9; [1]) | Kobs (MMP-2; [2]) | Kobs (MMP-9; [3]) | Kobs (MMP-2; [4]) |
| --- | --- | --- | --- | --- |
| GGSGR-LRLAI | 0 M⁻¹ s⁻¹ | 0 M⁻¹ s⁻¹ | – | – |
| GGSGR-LTLKW | 0 M⁻¹ s⁻¹ | 0 M⁻¹ s⁻¹ | – | – |
| GGSGR-LVLRV | – | – | 0 M⁻¹ s⁻¹ | 0 M⁻¹ s⁻¹ |
| GGSGR-LVMTY | 261.974 M⁻¹ s⁻¹ | 142.481 M⁻¹ s⁻¹ | – | – |
| GGSGR-LVVRL | – | – | 0 M⁻¹ s⁻¹ | 113.394 M⁻¹ s⁻¹ |
| GGSGS-LNQRL | 0 M⁻¹ s⁻¹ | 585.336 M⁻¹ s⁻¹ | – | – |
| GGSGS-LRLFE | – | – | 0 M⁻¹ s⁻¹ | 0 M⁻¹ s⁻¹ |
| GGSGS-LSVWK | 0 M⁻¹ s⁻¹ | 0 M⁻¹ s⁻¹ | – | – |
| GGSGS-LTFNT | 0 M⁻¹ s⁻¹ | 0 M⁻¹ s⁻¹ | – | – |
| GHAHH-LYTAS | 201.585 M⁻¹ s⁻¹ | 171.876 M⁻¹ s⁻¹ | – | – |
| GHLAS-QRTAS | – | – | 0 M⁻¹ s⁻¹ | 1870.4 M⁻¹ s⁻¹ |
| GHPWL-QRTAS | – | – | 56.119 M⁻¹ s⁻¹ | 0 M⁻¹ s⁻¹ |
| GIAMN-ILTAS | – | – | 990.764 M⁻¹ s⁻¹ | 0 M⁻¹ s⁻¹ |
| GISMY-LTASG | – | – | 0 M⁻¹ s⁻¹ | 690.17 M⁻¹ s⁻¹ |
| GKASN-LYTAS | – | – | 1030.73 M⁻¹ s⁻¹ | 3165.09 M⁻¹ s⁻¹ |
| GKFAT-LVTAS | 0 M⁻¹ s⁻¹ | 56.119 M⁻¹ s⁻¹ | – | – |
| GKPLP-WTASG | – | – | 5889.62 M⁻¹ s⁻¹ | 6131.32 M⁻¹ s⁻¹ |
| GKPNR-LVTAS | 1239.69 M⁻¹ s⁻¹ | 2761.81 M⁻¹ s⁻¹ | – | – |
| GKPQN-LRTAS | 12792.1 M⁻¹ s⁻¹ | 12792.1 M⁻¹ s⁻¹ | – | – |
| GKTWA-LTASG | – | – | 912.511 M⁻¹ s⁻¹ | 323.705 M⁻¹ s⁻¹ |
| GKVHQ-MLTAS | – | – | 27.918 M⁻¹ s⁻¹ | 0 M⁻¹ s⁻¹ |
| GKVNN-LVTAS | – | – | 201.585 M⁻¹ s⁻¹ | 517.582 M⁻¹ s⁻¹ |
| GKVRN-LTTAS | – | – | 8321.48 M⁻¹ s⁻¹ | 10866.7 M⁻¹ s⁻¹ |
| GLAVG-LRTAS | – | – | 4922.1 M⁻¹ s⁻¹ | 12792.1 M⁻¹ s⁻¹ |
| GLAYS-LQTAS | 2476.66 M⁻¹ s⁻¹ | 1561.44 M⁻¹ s⁻¹ | – | – |
| GLPQA-LLTAS | – | – | 12792.1 M⁻¹ s⁻¹ | 12792.1 M⁻¹ s⁻¹ |
| GMVLN-LTASG | – | – | 7015.91 M⁻¹ s⁻¹ | 12792.1 M⁻¹ s⁻¹ |

| Substance | Kobs (MMP-9; [1]) | Kobs (MMP-2; [2]) | Kobs (MMP-9; [3]) | Kobs (MMP-2; [4]) |
| --- | --- | --- | --- | --- |
| GMYLN-LKTAS | – | – | 0 M⁻¹ s⁻¹ | 0 M⁻¹ s⁻¹ |
| GNADL-IMTAS | 0 M⁻¹ s⁻¹ | 0 M⁻¹ s⁻¹ | – | – |
| GNAMR-MVTAS | – | – | 56.119 M⁻¹ s⁻¹ | 0 M⁻¹ s⁻¹ |
| GPAGH-LSTAS | 951.362 M⁻¹ s⁻¹ | 5889.62 M⁻¹ s⁻¹ | – | – |
| GPAQD-LYTAS | 0 M⁻¹ s⁻¹ | 0 M⁻¹ s⁻¹ | – | – |
| GPMQR-LMTAS | – | – | 0 M⁻¹ s⁻¹ | 0 M⁻¹ s⁻¹ |
| GPVMR-MSTAS | – | – | 0 M⁻¹ s⁻¹ | 0 M⁻¹ s⁻¹ |
| GQAWA-LGTAS | – | – | 355.093 M⁻¹ s⁻¹ | 484.315 M⁻¹ s⁻¹ |
| GQHMR-LITAS | – | – | 836.403 M⁻¹ s⁻¹ | 0 M⁻¹ s⁻¹ |
| GQPAH-LSTAS | 2761.81 M⁻¹ s⁻¹ | 10866.7 M⁻¹ s⁻¹ | – | – |
| GQPFA-LSTAS | – | – | 12792.1 M⁻¹ s⁻¹ | 12792.1 M⁻¹ s⁻¹ |
| GQPNF-LTASG | 1283.43 M⁻¹ s⁻¹ | 2157.02 M⁻¹ s⁻¹ | – | – |
| GQPRN-LSTAS | 12792.1 M⁻¹ s⁻¹ | 12792.1 M⁻¹ s⁻¹ | – | – |
| GQPVP-MLTAS | – | – | 6131.32 M⁻¹ s⁻¹ | 7386.83 M⁻¹ s⁻¹ |
| GQVFR-LITAS | – | – | 323.705 M⁻¹ s⁻¹ | 0 M⁻¹ s⁻¹ |
| GQVRA-LRTAS | – | – | 12792.1 M⁻¹ s⁻¹ | 12792.1 M⁻¹ s⁻¹ |
| GRALA-MQTAS | – | – | 2218.08 M⁻¹ s⁻¹ | 3637.04 M⁻¹ s⁻¹ |
| GRAQN-LLTAS | – | – | 1071.29 M⁻¹ s⁻¹ | 484.315 M⁻¹ s⁻¹ |
| GRASA-LNTAS | – | – | 0 M⁻¹ s⁻¹ | 517.582 M⁻¹ s⁻¹ |
| GRASR-LVTAS | 0 M⁻¹ s⁻¹ | 551.253 M⁻¹ s⁻¹ | – | – |
| GRAWG-LITAS | 1981.53 M⁻¹ s⁻¹ | 3165.09 M⁻¹ s⁻¹ | – | – |
| GRAWM-MVTAS | 27.918 M⁻¹ s⁻¹ | 0 M⁻¹ s⁻¹ | – | – |
| GRHQS-LRTAS | – | – | 0 M⁻¹ s⁻¹ | 836.403 M⁻¹ s⁻¹ |
| GRIAL-LTTAS | – | – | 0 M⁻¹ s⁻¹ | 7815.03 M⁻¹ s⁻¹ |
| GRLGC-LKTAS | – | – | 113.394 M⁻¹ s⁻¹ | 1112.44 M⁻¹ s⁻¹ |
| GRPHP-LSTAS | – | – | 8941.32 M⁻¹ s⁻¹ | 12792.1 M⁻¹ s⁻¹ |
| GRPLQ-YRTAS | – | – | 10866.7 M⁻¹ s⁻¹ | 12792.1 M⁻¹ s⁻¹ |

| Substance | Kobs (MMP-9; [1]) | Kobs (MMP-2; [2]) | Kobs (MMP-9; [3]) | Kobs (MMP-2; [4]) |
| --- | --- | --- | --- | --- |
| GRPMN-LRTAS | – | – | 12792.1 M⁻¹ s⁻¹ | 10866.7 M⁻¹ s⁻¹ |
| GRVAH-LRTAS | – | – | 1112.44 M⁻¹ s⁻¹ | 12792.1 M⁻¹ s⁻¹ |
| GRVHR-LSTAS | – | – | 0 M⁻¹ s⁻¹ | 0 M⁻¹ s⁻¹ |
| GRVLH-LRTAS | – | – | 2280.5 M⁻¹ s⁻¹ | 3850.82 M⁻¹ s⁻¹ |
| GRVWH-LQTAS | – | – | 1327.88 M⁻¹ s⁻¹ | 551.253 M⁻¹ s⁻¹ |
| GSAHL-LLTAS | – | – | 0 M⁻¹ s⁻¹ | 27.918 M⁻¹ s⁻¹ |
| GSALA-LTTAS | – | – | 1196.62 M⁻¹ s⁻¹ | 619.843 M⁻¹ s⁻¹ |
| GSGAK-LIVRT | – | – | 0 M⁻¹ s⁻¹ | 0 M⁻¹ s⁻¹ |
| GSGAW-LKKIT | – | – | 0 M⁻¹ s⁻¹ | 0 M⁻¹ s⁻¹ |
| GSGFA-LVAKT | 323.705 M⁻¹ s⁻¹ | 0 M⁻¹ s⁻¹ | – | – |
| GSGFQ-LRVFT | – | – | 84.609 M⁻¹ s⁻¹ | 0 M⁻¹ s⁻¹ |
| GSGHR-LMMGT | 0 M⁻¹ s⁻¹ | 0 M⁻¹ s⁻¹ | – | – |
| GSGLA-LKMGT | 0 M⁻¹ s⁻¹ | 84.609 M⁻¹ s⁻¹ | – | – |
| GSGLE-LRVNT | – | – | 231.616 M⁻¹ s⁻¹ | 0 M⁻¹ s⁻¹ |
| GSGMA-LTHIT | 84.609 M⁻¹ s⁻¹ | 84.609 M⁻¹ s⁻¹ | – | – |
| GSGMR-LVLRT | – | – | 0 M⁻¹ s⁻¹ | 0 M⁻¹ s⁻¹ |
| GSGNF-LRKMT | – | – | 484.315 M⁻¹ s⁻¹ | 1196.62 M⁻¹ s⁻¹ |
| GSGNR-LMRLT | – | – | 0 M⁻¹ s⁻¹ | 0 M⁻¹ s⁻¹ |
| GSGNS-LKRRT | 0 M⁻¹ s⁻¹ | 142.481 M⁻¹ s⁻¹ | – | – |
| GSGQG-LKVRT | – | – | 231.616 M⁻¹ s⁻¹ | 201.585 M⁻¹ s⁻¹ |
| GSGQG-LRMGT | 0 M⁻¹ s⁻¹ | 0 M⁻¹ s⁻¹ | – | – |
| GSGSD-LKSKT | 355.093 M⁻¹ s⁻¹ | 12792.1 M⁻¹ s⁻¹ | – | – |
| GSGWD-LKRST | 0 M⁻¹ s⁻¹ | 142.481 M⁻¹ s⁻¹ | – | – |
| GSGWR-LTVGT | 27.918 M⁻¹ s⁻¹ | 0 M⁻¹ s⁻¹ | – | – |
| GSPLD-LKTAS | 8941.32 M⁻¹ s⁻¹ | 12792.1 M⁻¹ s⁻¹ | – | – |
| GSPLS-WRTAS | – | – | 6396.07 M⁻¹ s⁻¹ | 7815.03 M⁻¹ s⁻¹ |

Source: article PMC7932537, “Quantitative profiling of protease specificity” (PLoS Computational Biology, 2021)
